The test system of one test is ATCC6872. The test is described as follows: Resistance/sensitivity characteristics of strain on minimal medium with resistance-providing material. It counts as cell-based, Corynebacterium stationis. The procedure: (§1) To prepare an IMP-producing strain derived from the ATCC6872 strain, the culture of ATCC6872 was suspended in a phosphate buffer (pH 7.0) or citrate buffer (pH 5.5) at a density of 10^7 cells/mL to 10^8 cells/mL and treated with UV at room temperature or 32° C. for 20 min to 40 min to induce a mutation. The strain was washed with a 0.85% saline solution twice and spread, after dilution, on a minimal medium containing 1.7% agar which was supplemented with a resistance-providing material at an appropriate concentration, and thereby colonies were obtained. Each colony was cultured in a nutrient medium and then cultured in a seed culture medium for 24 hours. […] To prepare a strain producing IMP at high concentration, adenine-auxotroph, guanine-leaky type, lysozyme sensitivity, 3,4-dehydroproline resistance, streptomycin resistance, sulfaguanidine resistance, norvaline resistance, and trimethoprim resistance were provided by performing the corresponding procedures in a sequential manner. As a result, the CJI2332 strain provided with resistance to the above materials and having excellent IMP productivity was finally selected.
(§2) Minimal medium: 2% glucose, 0.3% sodium sulfate, 0.1% monopotassium phosphate, 0.3% dipotassium phosphate, 0.3% magnesium sulfate, 10 mg/L calcium chloride, 10 mg/L iron sulfate, 1 mg/L zinc sulfate, 3.6 mg/L manganese chloride, 20 mg/L L-cysteine, 10 mg/L calcium pantothenate, 5 mg/L thiamine hydrochloride, 30 μg/L biotin, 20 mg/L adenine, 20 mg/L guanine, adjusted to pH 7.3.

Another test has as its system CJI2332. It counts as cell-based, Corynebacterium stationis. The procedure: as §1, §2

We go through six compounds from patent US11041181B2, “Promoter and method for producing purine nucleotide using the same” (CJ CHEILJEDANG CORPORATION, priority 2019, dated 2021).

For `O=C(O)C1C=CCN1` (stereo not drawn) [3,4-Dehydroproline], the resistance is listed as 1,000 μg/mL in the test with ATCC6872 and 3,500 μg/mL in the test with CJI2332.

Consider `[H]/N=C(/N)N[C@H]1[C@H](O)[C@@H](O)[C@H](O[C@@H]2O[C@@H](C)[C@](O)(C=O)[C@H]2O[C@@H]2O[C@@H](CO)[C@H](O)[C@@H](O)[C@@H]2NC)[C@@H](N/C(N)=N\[H])[C@@H]1O` [Streptomycin], for which the values for the resistance in the test with ATCC6872 and in the test on CJI2332 were 500 µg/mL and 2,000 μg/mL, respectively.

On to Lysozyme, for which the Lysozyme sensitivity in the test on ATCC6872 was 80 µg/mL; in the test on CJI2332, 8 µg/mL.

With `[H]/N=C(/N)NS(=O)(=O)c1ccc(N)cc1` [Sulfaguanidine], the resistance in the test with ATCC6872 came out at 50 µg/mL; with CJI2332, 200 µg/mL.

As to `COc1cc(Cc2cnc(N)nc2N)cc(OC)c1OC` [Trimethoprim], the figures for the resistance in the test on ATCC6872 and in the test with CJI2332 were 20 µg/mL and 100 µg/mL, respectively.

Consider `CCC[C@H](N)C(=O)O` [Norvaline], for which the figures for the Norvaline resistance in the test on ATCC6872 and in the test on CJI2332 were 0.2 mg/mL and 2 mg/mL, respectively.
